The source of these data is EP4026700A1, “INPRINTING” (Smart Coloring GmbH, priority 2021, dated 2022).

This data set can be described thus: Solubility in double distilled water. It is filed as physicochemical.

In the case of Disperse Blue 56, the “solubility in double distilled water” value is “about 14 mg/l”.
